From patent publication US7271239B2, “D-isomers of antimicrobial peptide” (The Research Foundation of State University of New York, priority 2004, dated 2007)
Values after ≈ are worked out from the molar mass of the structure shown. Read-outs that look alike come from different tables or passages of the source. Where a SMILES comes first, the peptide text is derived from it. Where no end group is shown, it is not given here. [ ]: non-standard residue; d: D form.

Columns and labels:
S. mutans GS-5 biofilm = assay type: cell-based, Streptococcus mutans
Protocol: FIG. 11. Effect of peptides on the biofilm formation of S. mutans. The bacterial cells (5×10^5 cfu ml^−1) were inoculated in 96-well microtiter plate containing 25% BHIS medium with different concentration of each agent. Culture without agent was used as no treatment control. After incubation at 37° C. for 24 h, absorbance at 595 nm was recorded to assess the cell growth. Biofilm assay was performed by discarding the supernatants, washing with PBS, fixing with methanol, and staining with CV. The absorbance at 570 nm was recorded to assess the amount of biofilm. The activity was expressed as % of control. Data represents mean and SD of two independent tests with duplicates for each. Empty bar: growth, solid bar: biofilm.
The effect of the peptides on S. mutans in biofilm formation was examined by the microdilution method. This method is similar to the MIC assay for planktonic cells. Two-fold serial dilutions of each peptide were prepared in wells of polystyrene microtiter plates (Microtest tissue culture plate, 96 well, Falcon, Becton Dickinson and Company, N.J.) containing 25% BHI medium supplemented with 1% sucrose (BHIS) at a volume of 200 μl per well. The final concentration of the peptide ranged from 0.78 to 100 μM for each peptide. Chlorhexidine (CHX, 0.078 to 10 μg/mL) was used as the positive control, the medium without drug as the non-treated control, and the medium alone as the blank control. The cells suspension of S. mutans GS-5 was prepared as describe in MIC assay and 20 μl aliquot (final concentration of cells 5×10^5 CFU/mL) was inoculated to the wells of polystyrene microtiter plates. After incubation at 37° C. for 20 h, the culture supernatants from each well were decanted and planktonic cells were removed by washing with PBS, pH 7.2. The biofilm was fixed with methanol for 15 min and then air dried at room temperature. The biofilm was then stained with 0.1% (wt/vol) crystal violet (Sigma) for 5 min. and rinsed thoroughly with water until the control wells appeared colorless. Biofilm formation was quantified by the addition of 200 μl of 95% ethanol to each crystal violet-stained well. The plate was rocked at room temperature for 30 min and the absorbance at 595 nm (A595 nm) was determined with a microplate reader (BioRad Model 3550 Microplate Reader). Percentage of inhibition was calculated with the equation: (1−A595 nm of the test/A595nm of non-treated control)×100.

S. gordonii Challis = experiment: microbe, parasite or virus in culture; assay type: cell-based, Streptococcus gordonii; details: for MBC / MIC: Streptococcus gordonii
Description: The bacteria used in this study included Streptococcus mutans ATCC10449, Streptococcus mutans AU 159, Streptococcus mutans GS-5, Streptococcus mutans GS-5 mutant (^gtf BCD), Streptococcus gordonii Challis, Porphyromonas gingivalis W50, Porphyromonas gingivalis 381, A. actinomycetemcomitans NCTC 9710, Pseudomonas aeruginosa ATCC 17648, and Escherichia coli HB101. One quarter strength (25%) of brain heart infusion broth (BHI, DIFCO Laboratories, Detroit, Mich.) was used for the growth of S. mutans, S. gordonii, A. actinomycetemcomitans, Ps. aeruginosa, and E. coli. For growth of P. gingivalis, tryptic soy broth-yeast extract medium (TSBY, DIFCO Laboratories, Detroit, Mich.) supplemented with cysteine hydrochloride (0.05%), menadione (0.02 μg/ml), hemin (5 μg/ml), and potassium nitrate (0.02%) was used. All bacteria were cultured at 37° C.; Ps. aeruginosa and E. coli were grown aerobically, and the other bacteria, anaerobically. To prepare bacterial cell suspension for antibacterial activity assays, each overnight culture was harvested by centrifuge (3783 g, 10 min), washed once with 10 mM sodium phosphate-buffered saline (PBS, pH 7.2), resuspended in PBS and adjusted to a concentration of 1×10^6 cells/mL.
MICs of the peptides were determined by broth microdilution method as previously described (5). Briefly, two-fold serial dilutions of each peptide were prepared with 25% BHI medium at a volume of 200 μl per well in 96-well flat-bottom microtiter plates (Costar, Cambridge, Mass.). The final concentration of the peptides ranged from 0.78 to 100 μM, and chlorhexidine (CHX), used as a positive control, from 20 to 0.16 μM (10 to 0.078 μg/mL). The microtiter plate was inoculated with bacterial cell suspension with final concentration of 5×10^6 CFU/mL for P. gingivalis and 5×10^5 CFU/mL for the other bacterial species. After incubation at 37° C. for 48 h, the absorbance was measured at 595 nm by using a microplate reader (Model 3550, Bio-Rad, Japan) to assess the cell growth. […] The MIC value represents the median of at least three independent experiments. The minimal bactericidal concentration (MBC) was determined as follows. Aliquot (100 μl) of cell suspension was taken from two wells above MIC, centrifuged, and washed three times with PBS. Then each cell suspension was plated on TSBY agar plate, and bacterial cells were enumerated after incubation at 37° C. for 48 h. The MBC was defined as the lowest concentration of the peptide at which more than 99.9% of cells were killed compared to non-treated control.

trypsin = experiment: Susceptibility of peptides to trypsin (SDS-PAGE); assay type: in vitro ADME
Protocol: FIGS. 3A and 3B. Stability of antimicrobial peptides in (3A) Trypsin and (3B) unclarified saliva. Each peptide (3 μg in 5 μl of 0.5 M Tris-HCl buffer pH 7.5) was incubated with: 0.2 μg/ml trypsin containing PIC or no PIC for 0.5 h; or saliva (10 μl) for 1 h. The control of each compound was also incubated with Tris-HCl buffer in parallel. The samples were analyzed by 13% SDS-PAGE. The gel was stained with Coomassie brilliant blue and further analyzed for the peptide degradation by GS-700 Imaging Densitometer. The degradation was estimated by the equation: 1−(density of test band/density of control band)×100%. Ctrol: each peptide alone; T: trypsin plus peptide; T+PIC: trypsin containing PIC plus peptide; S: saliva plus peptide; S+PIC: saliva containing PIC plus peptide.
Stability of peptides in saliva and susceptibility of septides to trypsin. Three microliters of each peptide (MUC7 12-mer-D, MUC7 12-mer-L, Hsn5 12-mer, or Magainin-II, at 1 μg/μl in 0.2 M Tris-HCl buffer pH 7.5) were incubated with 11 μl of 0.2 μg/ml trypsin or saliva. This gave a final concentration of 0.16 μg/ml for trypsin, and 0.2 μg/μl for peptides (or 127, 127, 128, and 81 μM, for MUC7 12-mer-D, MUC7 12-mer-L, Hsn5 12-mer, or Magainin II, respectively). The reactions, without PIC (water instead or PIC) or with 1×PIC [50% (v/v)] were incubated 0.5 h with trypsin, and 1 hr with saliva (clarified or unclarified) at 37° C. The control of each compound was also incubated with Tris-HCl buffer in parallel. The samples were analyzed by 13% SDS-PAGE. Gels was stained with Coomassie brilliant blue R-250 and further analyzed for the peptide degradation by GS-700 Imaging Densitometer (Bio Red). The degradation was estimated by the equation: 1−(density of test band/density of control band)×100%.

[1] = lowest concentration with 50% or more inhibition of biofilm formation

Compound	MBIC50 (S. mutans GS-5 biofilm; GS-5 biofilm, 24 h)	MBC (μM) (S. gordonii Challis)	MBC (μg/ml) (S. gordonii Challis)	MIC (μM) (S. gordonii Challis)	MIC (μg/ml) (S. gordonii Challis)	degradation by trypsin (trypsin)	MBIC50 (S. mutans GS-5 biofilm)	MBIC50 (S. mutans GS-5 biofilm; [1])	degradation by trypsin (trypsin; 0.5 h, 37° C., SDS-PAGE)	MBC (S. gordonii Challis; read-out: MBC)	MBC (S. gordonii Challis; read-out: MBC (μg/ml))	MIC (S. gordonii Challis; read-out: MIC)	MIC (S. gordonii Challis; read-out: MIC (μg/ml))
AKRHHGYKRKFH [Hsn5 12-mer]	25 µM	>100 µM	>158 µg/mL	>100 µM	>158 µg/mL	degraded	–	–	–	–	–	–	–
CC(C)C[C@H](NC(=O)[C@H](CS)NC(=O)[C@H](CCCCN)NC(=O)[C@H](Cc1ccc(O)cc1)NC(=O)[C@H](CO)NC(=O)[C@H](CCCCN)NC(=O)[C@@H](N)CCCNC(=N)N)C(=O)N[C@@H](Cc1c[nH]cn1)C(=O)N[C@@H](CCCCN)C(=O)N[C@@H](CCCNC(=N)N)C(=O)N[C@@H](CS)C(=O)N[C@@H](CCCNC(=N)N)C(=O)O [MUC7 12-mer-L] (H-RKSYKCLHKRCR-OH; N-terminus and C-terminus assumed)	12.5 µM	100.0 µM (≈ 158 µg/mL)	–	50.0 µM (≈ 78.9 µg/mL)	–	degraded	–	–	–	–	–	–	–
CC(C)C[C@@H](NC(=O)[C@@H](CS)NC(=O)[C@@H](CCCCN)NC(=O)[C@@H](Cc1ccc(O)cc1)NC(=O)[C@@H](CO)NC(=O)[C@@H](CCCCN)NC(=O)[C@H](N)CCCNC(=N)N)C(=O)N[C@H](Cc1c[nH]cn1)C(=O)N[C@H](CCCCN)C(=O)N[C@H](CCCNC(=N)N)C(=O)N[C@H](CS)C(=O)N[C@H](CCCNC(=N)N)C(=O)O [MUC7 12-mer-D] (H-[dR][dK][dS][dY][dK][dC][dL][dH][dK][dR][dC][dR]-OH; N-terminus and C-terminus assumed)	6.25 µM	100.0 µM (≈ 158 µg/mL)	–	50.0 µM (≈ 78.9 µg/mL)	–	resistant to the degradation	–	–	–	–	–	–	–
GIGKFLHSAKKFGKAFVGEIMNS [Magainin-II]	–	>50 µM	>123 µg/mL	50.0 µM	123.5 µg/mL	–	62 µg/mL	25 µM	degraded	–	–	–	–
[H]/N=C(\N/C(=N/[H])NCCCCCCNC(=N)NC(=N)Nc1ccc(Cl)cc1)Nc1ccc(Cl)cc1 [Chlorhexidine, Chlorhexidine digluconate]	–	–	–	–	–	–	0.625 µg/mL	1.25 µM	–	4 µM	2 µg/mL	2.5 µM	1.2 µg/mL
